# Results published in patent US12077503B2, “Substituted cyclic amides and their use as herbicides” (FMC CORPORATION, priority 2015, dated 2024).
# What was measured:
# Assay in all cases: Test A preemergence
# Assay type in all cases: in vivo
# [1] = system: giant foxtail (Setaria faberii); conditions: Setaria faberi, pre-emergence, 240 h; for pest or weed control at 125 g/ha: 125 g ai/ha, preemergence, visual rating after approx. 10 d, 0 to 100 scale where 0 is no effect and 100 is complete control; for pest or weed control at 125 g/ha / pest or weed control at 31 g/ha: read-out: Plant response rating, Foxtail, Giant; for pest or weed control at 500 g/ha: 500 g ai/ha, visual injury vs untreated controls after approximately 10 d, read-out: Foxtail, Giant plant response rating (0 to 100 scale where 0 is no effect and 100 is complete control); for pest or weed control at 500 g/ha / pest or weed control at 31 g/ha: Preemergence; for pest or weed control at 31 g/ha: 31 g ai/ha, 0 to 100 scale (0 no effect, 100 complete control)
# In short: (§1)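 Compounds were formulated in a non-phytotoxic solvent mixture with surfactant and applied as a preemergence directed soil spray after seeding, or sprayed postemergence over plants 2 to 10 cm tall at the one- to two-leaf stage. Evaluation after about 10 d compared treated with untreated controls, using a scale from 0 (no effect) to 100 (complete control).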
# [2] = system: ragweed (common ragweed, Ambrosia elatior); conditions: Ambrosia artemisiifolia, pre-emergence, 240 h; for pest or weed control at 125 g/ha: 125 g ai/ha, preemergence, visual rating after approx. 10 d, 0 to 100 scale where 0 is no effect and 100 is complete control; for pest or weed control at 125 g/ha / pest or weed control at 31 g/ha: read-out: Plant response rating, Ragweed; for pest or weed control at 500 g/ha: 500 g ai/ha, visual injury vs untreated controls after approximately 10 d, read-out: Ragweed plant response rating (0 to 100 scale where 0 is no effect and 100 is complete control); for pest or weed control at 500 g/ha / pest or weed control at 31 g/ha: Preemergence; for pest or weed control at 31 g/ha: 31 g ai/ha, 0 to 100 scale (0 no effect, 100 complete control)
# In short: as §1
# [3] = system: barnyardgrass (Echinochloa crus-galli); conditions: Echinochloa crus-galli, pre-emergence, 240 h; for pest or weed control at 125 g/ha: 125 g ai/ha, preemergence, visual rating after approx. 10 d, 0 to 100 scale where 0 is no effect and 100 is complete control; for pest or weed control at 125 g/ha / pest or weed control at 31 g/ha: read-out: Plant response rating, Barnyardgrass; for pest or weed control at 500 g/ha: 500 g ai/ha, visual injury vs untreated controls after approximately 10 d, read-out: Barnyardgrass plant response rating (0 to 100 scale where 0 is no effect and 100 is complete control); for pest or weed control at 500 g/ha / pest or weed control at 31 g/ha: Preemergence; for pest or weed control at 31 g/ha: 31 g ai/ha, 0 to 100 scale (0 no effect, 100 complete control)
# In short: as §1
# [4] = system: ryegrass, Italian (Italian ryegrass, Lolium multiflorum); conditions: Lolium multiflorum, pre-emergence, 240 h; for pest or weed control at 125 g/ha: 125 g ai/ha, preemergence, visual rating after approx. 10 d, 0 to 100 scale where 0 is no effect and 100 is complete control; for pest or weed control at 125 g/ha / pest or weed control at 31 g/ha: read-out: Plant response rating, Ryegrass, Italian; for pest or weed control at 500 g/ha: 500 g ai/ha, visual injury vs untreated controls after approximately 10 d, read-out: Ryegrass, Italian plant response rating (0 to 100 scale where 0 is no effect and 100 is complete control); for pest or weed control at 500 g/ha / pest or weed control at 31 g/ha: Preemergence; for pest or weed control at 31 g/ha: 31 g ai/ha, 0 to 100 scale (0 no effect, 100 complete control)
# In short: as §1
# Kochia (Kochia scoparia) = conditions: Bassia scoparia, pre-emergence, 240 h; for pest or weed control at 125 g/ha: 125 g ai/ha, preemergence, visual rating after approx. 10 d, 0 to 100 scale where 0 is no effect and 100 is complete control; for pest or weed control at 125 g/ha / pest or weed control at 31 g/ha: read-out: Plant response rating, Kochia; for pest or weed control at 500 g/ha: 500 g ai/ha, visual injury vs untreated controls after approximately 10 d, read-out: Kochia plant response rating (0 to 100 scale where 0 is no effect and 100 is complete control); for pest or weed control at 500 g/ha / pest or weed control at 31 g/ha: Preemergence; for pest or weed control at 31 g/ha: 31 g ai/ha, 0 to 100 scale (0 no effect, 100 complete control)
# In short: as §1
# [5] = system: pigweed (Amaranthus retroflexus); conditions: Amaranthus retroflexus, pre-emergence, 240 h; for pest or weed control at 125 g/ha: 125 g ai/ha, preemergence, visual rating after approx. 10 d, 0 to 100 scale where 0 is no effect and 100 is complete control; for pest or weed control at 125 g/ha / pest or weed control at 31 g/ha: read-out: Plant response rating, Pigweed; for pest or weed control at 500 g/ha: 500 g ai/ha, visual injury vs untreated controls after approximately 10 d, read-out: Pigweed plant response rating (0 to 100 scale where 0 is no effect and 100 is complete control); for pest or weed control at 500 g/ha / pest or weed control at 31 g/ha: Preemergence; for pest or weed control at 31 g/ha: 31 g ai/ha, 0 to 100 scale (0 no effect, 100 complete control)
Structure (SMILES),pest or weed control at 125 g/ha [1] [%],pest or weed control at 500 g/ha [1] [%],pest or weed control at 125 g/ha [2] [%],pest or weed control at 500 g/ha [2] [%],pest or weed control at 125 g/ha [3] [%],pest or weed control at 500 g/ha [3] [%],pest or weed control at 125 g/ha [4] [%],pest or weed control at 500 g/ha [4] [%],pest or weed control at 125 g/ha (Kochia (Kochia scoparia)) [%],pest or weed control at 500 g/ha (Kochia (Kochia scoparia)) [%],pest or weed control at 125 g/ha [5] [%],pest or weed control at 500 g/ha [5] [%],pest or weed control at 31 g/ha [1] [%],pest or weed control at 31 g/ha [2] [%],pest or weed control at 31 g/ha [3] [%],pest or weed control at 31 g/ha [4] [%],pest or weed control at 31 g/ha (Kochia (Kochia scoparia)) [%],pest or weed control at 31 g/ha [5] [%]
CC(F)(F)c1cccc([C@H]2CNC(=O)[C@@H]2C(=O)Nc2cccc(F)c2F)c1 [Compound 779],90,90,20,70,90,90,40,40,70,80,40,60,,,,,,
CC(F)(F)c1cccc([C@H]2CNC(=O)[C@@H]2C(=O)Nc2ccccc2S(C)(=O)=O)c1 [Compound 780],90,90,40,70,80,90,0,20,40,80,0,50,,,,,,
CN1C[C@H](c2cc(F)cc(F)c2)[C@@H](C(=O)Nc2ncccc2F)C1=O [Compound 783],0,80,0,0,0,70,0,0,30,50,0,0,,,,,,
CS(=O)(=O)c1ccccc1NC(=O)[C@H]1C(=O)NC[C@@H]1c1ccc(OC(F)F)cc1 [Compound 787],70,90,70,70,20,70,0,0,80,90,50,80,,,,,,
Cc1cc([C@H]2CNC(=O)[C@@H]2C(=O)Nc2ccccc2F)ccc1Cl [Compound 789],60,90,0,0,90,90,0,0,,30,0,20,,,,,,
Cc1cc([C@H]2CNC(=O)[C@@H]2C(=O)Nc2cccc(F)c2F)ccc1Cl [Compound 790],70,90,20,60,90,90,30,70,70,80,0,40,,,,,,
CN1CC[C@@H](c2cccc(C(F)(F)F)c2)[C@H](C(=O)Nc2ccccc2F)C1=O [Compound 794],90,,0,,90,,0,,0,,0,,30,0,70,0,0,0
CSc1ccccc1NC(=O)[C@H]1C(=O)N(C)C[C@@H]1c1cc(C)c(C)c(C)c1 [Compound 798],90,,0,,80,,0,,20,,40,,70,0,20,0,0,30
CSc1ccccc1NC(=O)[C@H]1C(=O)N(C)C[C@@H]1c1ccc(C(F)F)cc1 [Compound 799],90,,0,,40,,0,,40,,40,,70,0,0,0,0,30
Cc1cc(F)cc([C@H]2CN(C)C(=O)[C@@H]2C(=O)Nc2ccc(F)c(F)c2F)c1 [Compound 801],90,,60,,90,,20,,70,,30,,80,20,80,0,40,30
CN1C[C@H](c2ccc(C(F)F)cc2)[C@@H](C(=O)Nc2ccccc2F)C1=O [Compound 803],90,,60,,90,,0,,70,,60,,90,30,70,0,50,40
CN1CC[C@H](c2cccc(OC(F)(F)F)c2)[C@@H](C(=O)Nc2cccc(F)c2F)C1=O [Compound 807],100,,0,,100,,70,,50,,40,,100,0,100,20,0,0
CN1CC[C@H](c2cccc(OC(F)(F)F)c2)[C@@H](C(=O)Nc2cccc(Cl)c2F)C1=O [Compound 810],90,,0,,90,,20,,0,,0,,70,0,90,0,0,0
